Data from the NIST ThermoML archive (doi:10.1016/j.jct.2018.02.022).
“And” between values parts separate entries of the source, which are not always exact repeats. Equal entries are not always repeated. Numbers after ± are expanded uncertainties.

Assay: xn = mol fraction of the nth substance listed
Conditions: 293.15 K, 92.3 kPa, Liquid; for speed of sound: Frequency=3 MHz, Single path-length method; for mass density: Vibrating tube method

CCO [ethanol] + O
Conditions | mass density | speed of sound [m/s]
x1 = 0.0024 | 997.039 ± 3 kg/m3 | –
x1 = 0.0201 | 989.54 ± 3.2 kg/m3 | –
x1 = 0.0202 | 989.382 ± 3.2 kg/m3 | –
x1 = 0.0295 | 985.977 ± 3.2 kg/m3 | –
x1 = 0.0366 | 983.574 ± 3.2 kg/m3 | –
x1 = 0.0408 | 982.27 ± 3.2 kg/m3 | –
x1 = 0.0497 | 979.54 ± 3.2 kg/m3 | –
x1 = 0.0513 | 978.913 ± 3.2 kg/m3 | –
x1 = 0.06 | 976.51 ± 3.2 kg/m3 and 976.452 ± 3.2 kg/m3 | –
x1 = 0.0707 | 973.538 ± 3.2 kg/m3 | –
x1 = 0.0796 | 971.24 ± 3.2 kg/m3 | –
x1 = 0.0801 | 971.049 ± 3.2 kg/m3 | –
x1 = 0.0904 | 968.313 ± 3.2 kg/m3 | –
x1 = 0.0997 | 965.87 ± 3.2 kg/m3 | –
x1 = 0.1004 | 963.75 ± 3.2 kg/m3 | –
x1 = 0.1294 | 957.918 ± 3.2 kg/m3 | –
x1 = 0.1497 | 952.184 ± 3.2 kg/m3 | –
x1 = 0.1499 | 951.92 ± 3.2 kg/m3 | –
x1 = 0.1984 | 935.19 ± 3.2 kg/m3 | –
x1 = 0.2008 | 937.088 ± 3.2 kg/m3 | –
x1 = 0.2499 | 922.7 ± 3.2 kg/m3 | –
x1 = 0.2503 | 922.612 ± 3.2 kg/m3 | –
x1 = 0.2998 | 908.897 ± 3.2 kg/m3 | –
x1 = 0.3016 | 908.77 ± 3.2 kg/m3 | –
x1 = 0.3499 | 896.37 ± 3.2 kg/m3 | –
x1 = 0.3507 | 895.841 ± 3.2 kg/m3 | –
x1 = 0.399 | 884.54 ± 3.2 kg/m3 | –
x1 = 0.3992 | 884.433 ± 3.2 kg/m3 | –
x1 = 0.4495 | 873.57 ± 3.2 kg/m3 | –
x1 = 0.4514 | 873.258 ± 3.2 kg/m3 | –
x1 = 0.4989 | 864.28 ± 3.2 kg/m3 | –
x1 = 0.5002 | 863.248 ± 3.2 kg/m3 | –
x1 = 0.5494 | 854.117 ± 3.2 kg/m3 | –
x1 = 0.5495 | 854.95 ± 3.2 kg/m3 | –
x1 = 0.6018 | 845.002 ± 3.2 kg/m3 | –
x1 = 0.6067 | 844.7 ± 3.2 kg/m3 | –
x1 = 0.6503 | 837.27 ± 3.2 kg/m3 and 837.196 ± 3.2 kg/m3 | –
x1 = 0.6956 | 830.42 ± 3.2 kg/m3 | –
x1 = 0.7006 | 829.434 ± 3.2 kg/m3 | –
x1 = 0.7355 | 824.262 ± 3.2 kg/m3 | –
x1 = 0.75 | 822.4 ± 3.2 kg/m3 | –
x1 = 0.7843 | 817.86 ± 3.2 kg/m3 | –
x1 = 0.7965 | 815.831 ± 3.2 kg/m3 | –
x1 = 0.8433 | 809.567 ± 3.2 kg/m3 | –
x1 = 0.8475 | 809.97 ± 3.2 kg/m3 | –
x1 = 0.8864 | 804.22 ± 3.1 kg/m3 | –
x1 = 0.892 | 803.132 ± 3.2 kg/m3 | –
x1 = 0.9093 | 800.938 ± 3.2 kg/m3 | –
x1 = 0.9207 | 799.51 ± 3.2 kg/m3 | –
x1 = 0.929 | 798.49 ± 3.1 kg/m3 | –
x1 = 0.9307 | 798.225 ± 3.2 kg/m3 | –
x1 = 0.9398 | 797.133 ± 3.2 kg/m3 | –
x1 = 0.9483 | 796.043 ± 3.1 kg/m3 | –
x1 = 0.9603 | 794.596 ± 3.1 kg/m3 | –
x1 = 0.9702 | 793.374 ± 3.1 kg/m3 | –
x1 = 0.9801 | 792.038 ± 3.1 kg/m3 | –
x1 = 0.9895 | 791.076 ± 3.1 kg/m3 | 1165 ± 1.8
x1 = 1 | 789.547 ± 3 kg/m3 | 1160.7 ± 1.8
